Results from patent US7649016B2, “Antitumor medicine” (Nihon Starch Co., Ltd., priority 2003, dated 2010).

Legend:
[1] = system: B16 melanoma cells in C57 BL/6 mice; assay: Cancerous peritonitis model, survival of mice with B16 melanoma cells in the abdominal cavity; type: in vivo, mouse
Protocol: B16 melanoma cells (5×10^6 cells) were disseminated in the abdominal cavities of C57 BL/6 mice, PBS (phosphate buffer) and an ascopyrone P solution were then administered (dosage: 200 mg/kg) into the abdominal cavities every day from the 15th day, and the survival rates were examined (cancerous peritonitis model). It was confirmed that, in this experimental system, when the B16 melanoma cells were disseminated in the abdominal cavities of the mice in advance, the mice died from the 14th day or later when nothing or PBS was applied. The results of examining the life extending effect of ascopyrone P on terminal cancer models by use of the present experimental system are shown in FIG. 8. […] This indicates the antitumor effect in vivo of ascopyrone P.
As in Example 1, B16 melanoma cells (5×10^6 cells) were disseminated in the abdominal cavities of C57 BL/6 mice, and PBS and 1,5-D-anhydrofructose were administered (dosage: 200 mg/kg) into the abdominal cavities every day from the 2nd day. The average survival days after the tumor cells were disseminated were 19 days for those given 1,5-D-anhydrofructose and 14 days for those given PBS as controls.

[2] = system: integrin (THP-1 cell adhesion); assay: Number of adhered cells after phorbol ester (PMA) stimulation, function of integrin; type: cell-based, human; conditions: THP-1, 12.3 mM, one hour
Protocol: A 1,5-D-anhydrofructose solution (prepared by dissolving 1,5-D-anhydrofructose in DMSO) was added to the THP-1 cell culture medium, and the resulting medium was then stimulated by phorbol ester (PMA; phorbol myristate acetate). After the medium was cultured at 37° C. and a CO2 concentration of 5% for one hour, adhered cells were stained with a Giemsa staining method.
It is known that when leukemia cell lines are stimulated by phorbol ester (PMA), activation of adhesion molecule integrin is observed, and as a result, production of active oxygen, enhancement of cell adhesion and cell infiltration are induced as cell phenomena. Thus, THP-1 cell lines were cultured in the presence of 1,5-D-anhydrofructose, and the function of integrin was evaluated by use of the number of adherent cells after stimulation of the lines by phorbol ester as an index.

B16 melanoma cells = assay: Cell growth inhibition, number of living cells by crystal violet staining; type: cell-based, mouse; conditions: 0.70 mM final concentration, one week culture
Protocol: After B16 melanoma cells having multiplied on a 6-well plate were fixed by 2% glutaraldehyde, they were stained with 4% crystal violet, and stainable cells were determined to be living cells.
5×10^3 cells/ml of B16 melanoma cells (C57 BL/6 mouse melanoma cells) were disseminated into a 6-well plate. After the cells were attached to the bottom face (24 hours), an ascopyrone P solution (using DMSO as a solvent) was added in equal amounts to achieve a final concentration of 0 to 0.70 mM in the culture solutions. After the cells were cultured at 37° C. and a CO2 concentration of 5% for one week, the number of living cells was counted.

[3] = system: THP-1 (promyelocytic leukemia cells); assay: Percentage of dead cells by PI staining/FACS; type: cell-based, human
Protocol: (§1) Adhesion cancer cell lines C57 BL/6 mouse melanoma cell lines (B16 melanoma), human lung adenocarcinoma cell lines (A549), human keratinocyte derived tumor-like cell lines (HaCaT) and human cervical cancer cell lines (Hela) were cultured at 37° C. and a CO2 concentration of 5% in DMEM media having 10% FCS (fetal calf serum) and 2% penicillin/streptomycin added thereto. Floating tumor cells THP-1 (promyelocytic leukemia cell lines) were cultured at 37° C. and a CO2 concentration of 5% in an RPMI 1640 medium containing 10% FCS and 2% penicillin/streptomycin.
(§2) The cell culture media were stimulated by ascopyrone P solutions (prepared by dissolving ascopyrone P in dimethyl sulfoxide (DMSO)) of various concentrations and cultured for a predetermined time. Thereafter, cells were collected in a floating state by use of trypsin. Then, the cells were fixed by 70% ethanol at 4° C. for 30 minutes and then stained with a 50 μg/ml propidium iodine (PI) solution. […]
(§3) In the examination, in addition to the B16 melanoma cells, 4 types of human cancer cell lines (THP-1: promyelocytic leukemia, HeLa: cervical cancer, A549: alveolar cell carcinoma, HaCaT: cutaneous cancer model cells) were examined for the proportion of dead cells induced by stimulation of ascopyrone P. To the cancer cell culture solutions, ascopyrone P was added to 1.4 mM, and the percentages of dead cells after 48 hours were determined.

[4] = system: HaCaT (human keratinocyte derived tumor-like cells); assay: Percentage of dead cells by PI staining/FACS; DNA fragmentation; FCS 10% vs FCS 1%; type: cell-based; conditions: 1.4 mM
Protocol: as §1
(§4) The cell culture media were stimulated by ascopyrone P solutions (prepared by dissolving ascopyrone P in dimethyl sulfoxide (DMSO)) of various concentrations and cultured for a predetermined time. Thereafter, cells were collected in a floating state by use of trypsin. Then, the cells were fixed by 70% ethanol at 4° C. for 30 minutes and then stained with a 50 μg/ml propidium iodine (PI) solution. After 30 minutes, DNA histograms were prepared by use of an FACS to examine cell death percentages and cell cycles.
as §3
It is known that although HaCaT cells have characteristics of tumor cells in the presence of 10% FCS, they have characteristics close to those of normal cells in the presence of low-concentration FCS (1% or lower). By taking advantage of this characteristic, the influence of ascopyrone P on normal cells was examined.

[5] = system: B16 melanoma (C57 BL/6 mouse melanoma cells); assay: Percentage of dead cells by PI staining/FACS; type: cell-based; conditions: 1.4 mM, after 48 hours
Protocol: as §1, §2, §3

[6] = system: B16 melanoma cells in C57 BL/6 mice; assay: Subcutaneous B16 melanoma tumor volume and metastasis; type: in vivo, mouse; conditions: 25 mg/kg subcutaneously into tumor spots every other day, 3rd to 13th day
Protocol: Next, B16 melanoma cells (1×10^5 cells) were subcutaneously disseminated in the backs of C57 BL/6 mice, PBS and ascopyrone P were subcutaneously injected into tumor spots (using a solution of ascopyrone P dissolved in PBS in a dosage of 25 mg/kg) every other day from the 3rd day to the 13th day, and the antitumor effects were evaluated based on the volumes (long diameter×short diameter^2×0.52) of the tumors (FIG. 10). […] In general, it is said in clinical practice that an antitumor medicine with a lower tumor growing rate provides better prognosis.

[7] = system: HeLa (human cervical cancer cells); assay: Percentage of dead cells and cell cycle by PI staining/FACS; type: cell-based; conditions: 1.4 mM
Protocol: as §1, §4, §3
Therefore, when ascopyrone P is given to a living body as an antitumor medicine, it is expected that it specifically exerts a cell killing effect only on tumor cells without affecting normal cells most of which are conceived in the G0/1 period of the cell cycle.

[8] = system: A549 (human alveolar cell carcinoma); assay: Percentage of dead cells by PI staining/FACS; DNA fragmentation; type: cell-based
Protocol: as §1, §2, §3

O=C1CO[C@H](CO)[C@@H](O)[C@@H]1O [1,5-D-anhydrofructose]
average survival days after the tumor cells were disseminated ([1]; 200 mg/kg into the abdominal cavity every day from the 2nd day, PBS controls 14 days): 19 days
cell adhesion by phorbol ester (remaining) [2]: about 25%

O=C1CC(CO)OC=C1O (stereo not drawn) [ascopyrone P, 2-hydroxymethyl-5-hydroxy-2,3-dihydro-4H-pyran-4-one]
number of living cells (control DMSO = 100%) (B16 melanoma cells): ≤ 50%
proportion of mice with 3 times or longer life time expansion than controls (PBS) ([1]; 200 mg/kg into the abdominal cavity every day from the 15th day): 40%
average survival days ([1]; 200 mg/kg into the abdominal cavity every day from the 15th day, PBS controls 4 days): 8 days
cell death ([3]; THP-1, 0.35 mM, within 48 hours): induced cell death
Percentage of Dead Cells (%) ([3]; THP-1, 1.4 mM, after 48 hours): 33.3 ± 0.7%
apoptosis-specific DNA fragmentation ([4]; 48 hours, agarose gel electrophoresis): apoptosis-specific DNA fragmentation was observed
Percentage of Dead Cells (%) ([4]; after 48 hours): 27.2 ± 3.1%
cell death ([4]; FCS 1% (normal-cell-like)): almost no cell death was observed
cell death ([4]; FCS 10% (tumor-like growth), within 48 hours): about 30%
Percentage of Dead Cells (%) [5]: 31.9 ± 3.6%
metastasis of tumors at dissection [6]: hardly observed
tumor volume versus PBS ([6]; from the 7th day and later): significantly smaller tumor volume
tumor volume versus PBS ([6]; until the 7th day): no difference
Percentage of Dead Cells (%) ([7]; after 48 hours): 8.3 ± 2.0%
G2/M period cell population ([7]; FCS 10%, 24 hours): significant decrease
S-period cell population ([7]; FCS 10%, 24 hours): significant increase
cell death ([7]; FCS 10%, 48 hours): about 10%
Percentage of Dead Cells (%) ([8]; A549, 1.4 mM, after 48 hours): 48.6 ± 3.8%
apoptosis-specific DNA fragmentation ([8]; A549 cells): the same result was also obtained
